Measurements reported in ChEMBL document CHEMBL1127223, “Evaluation of the intestinal permeability and hepatic handling of peptidomimetic analogs” (Bioorg Med Chem Lett, 1993).
Values after ≈ are worked out from the molar mass of the structure shown.

Legend:
[1] = Partition coefficient (LogP) value was evaluated; format: physicochemical; settings: octanol/water
[2] = Tested for aqueous solubility of the compound; format: physicochemical; settings: read-out: S
[3] = Tested for pKa value of the compound; format: physicochemical
[4] = molecular target: T1, Renin (Rattus norvegicus) (UniProt P08424); experiment: Tested for % inhibition against renin at 10E-6 M concentration; format: functional
T1 sequence (whole entry): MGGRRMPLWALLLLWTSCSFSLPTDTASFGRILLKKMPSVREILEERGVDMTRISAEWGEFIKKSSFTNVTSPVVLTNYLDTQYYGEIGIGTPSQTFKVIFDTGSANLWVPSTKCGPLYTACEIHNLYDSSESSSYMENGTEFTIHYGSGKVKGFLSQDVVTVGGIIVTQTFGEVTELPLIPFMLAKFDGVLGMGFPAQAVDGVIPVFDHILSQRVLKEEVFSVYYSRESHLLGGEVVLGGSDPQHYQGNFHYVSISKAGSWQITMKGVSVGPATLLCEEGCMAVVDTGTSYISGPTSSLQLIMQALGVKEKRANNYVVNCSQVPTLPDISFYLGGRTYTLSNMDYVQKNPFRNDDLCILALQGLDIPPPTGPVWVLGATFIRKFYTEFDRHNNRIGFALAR

[5] = molecular target: T1, Renin (Rattus norvegicus); experiment: Tested for percent inhibition against renin at 10 e-6 M concentration in rat; format: functional

logP [1] | solubility [2] [µg/mL] | pKa [3] | inhibition [4] [%] | inhibition [5] [%] | Structure (SMILES)
3.1 | 10 (≈ 14.1 µM) | 6.3 |  |  | CC(C)C[C@H](O)[C@H](O)[C@H](CC1CCCCC1)NC(=O)[C@H](Cc1csc(N)n1)NC(=O)[C@H](Cc1ccccc1)NS(=O)(=O)N1CCOCC1
2 | 5870 (≈ 24100 µM) | 9.3 | 0 |  | CC(C)C[C@H](O)[C@H](O)[C@@H](N)CC1CCCCC1
4 | < 20 |  |  | 0 | CC(C)C[C@H](O)[C@H](O)[C@H](CC1CCCCC1)NC(=O)OC(C)(C)C
